From publication PMC10779248, “Investigation of the Potential of Selected Food-Derived Antioxidants to Bind and Stabilise the Bioactive Blue Protein C-Phycocyanin from Cyanobacteria Spirulina” (International Journal of Molecular Sciences, 2023) come the findings set out here.

What all share (assay type): binding
Settings in all cases: read-out: Ka (M^-1) (converted)

Assay [1] concerns the target T1, C-phycocyanin (C-PC) (Limnospira platensis, UniProt P72508+P72509). The assay can be described thus: fluorescence quenching titration (PCB emission, excitation […] nm); also UV-VIS, near-UV CD, thermal shift of nearly […] °C. Set-up: gene cpcB; native C-PC purified from Spirulina biomass, (αβ)3 trimer / (αβ)6 hexamer; with C-phycocyanin alpha subunit (cpcA).
Target sequence in this assay (P72508 whole entry): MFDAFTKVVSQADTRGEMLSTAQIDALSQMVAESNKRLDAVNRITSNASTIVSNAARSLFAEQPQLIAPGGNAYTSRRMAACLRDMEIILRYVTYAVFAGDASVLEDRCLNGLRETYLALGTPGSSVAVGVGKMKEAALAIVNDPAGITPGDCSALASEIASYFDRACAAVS
Target sequence in this assay (P72509 whole entry): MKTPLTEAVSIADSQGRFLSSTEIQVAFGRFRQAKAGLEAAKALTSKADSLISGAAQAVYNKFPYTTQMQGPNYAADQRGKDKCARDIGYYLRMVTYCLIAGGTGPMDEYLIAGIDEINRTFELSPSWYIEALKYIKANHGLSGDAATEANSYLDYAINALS
The target in assay [2] is T1, C-phycocyanin (C-PC). The assay can be described thus: fluorescence quenching titration (PCB emission, excitation […] nm); also UV-VIS and near-UV CD; no change in Tm. Further details: gene cpcB; native C-PC purified from Spirulina biomass, (αβ)3 trimer / (αβ)6 hexamer; with C-phycocyanin alpha subunit (cpcA).
Target sequence in this assay (P72508 whole entry): as the sequence (P72508 whole entry) above
Target sequence in this assay (P72509 whole entry): as the sequence (P72509 whole entry) above
Assay [3] deals with T1, C-phycocyanin (C-PC). The assay can be described thus: fluorescence quenching titration (PCB emission, excitation […] nm); also near-UV CD, thermal shift of nearly […] °C. Set-up: gene cpcA; native C-PC purified from Spirulina biomass, (αβ)3 trimer / (αβ)6 hexamer; with C-phycocyanin beta subunit (cpcB).
Target sequence in this assay (P72509 whole entry): as above
Target sequence in this assay (P72508 whole entry): as the sequence (P72508 whole entry) above

Turning to `O=c1c(O)c(-c2ccc(O)c(O)c2)oc2cc(O)cc(O)c12` [quercetin], the Kd in assay [1] was 2700 nM.
On to `Oc1ccc(/C=C/c2cc(O)cc(O)c2)cc1` [resveratrol], for which the Kd in assay [2] was 4550 nM.
For the compound `COC1=C(OC)C(=O)C(C/C=C(\C)CC/C=C(\C)CC/C=C(\C)CC/C=C(\C)CC/C=C(\C)CC/C=C(\C)CC/C=C(\C)CC/C=C(\C)CC/C=C(\C)CCC=C(C)C)=C(C)C1=O` [coenzyme Q10], the Kd in assay [3] was 2940 nM.
